This is an account of results in ChEMBL document CHEMBL1250444, “Nitric oxide activates TRP channels by cysteine S-nitrosylation” (Nat Chem Biol, 2006).

Numbering of substitutions follows the chain as printed. Active and inactive are the calls of the source. No cut-off for these calls is given here.

For assay [1], the target named is T1, Transient receptor potential cation channel subfamily V member 3 (Homo sapiens) (UniProt Q8NET8).
T1 sequence (whole entry): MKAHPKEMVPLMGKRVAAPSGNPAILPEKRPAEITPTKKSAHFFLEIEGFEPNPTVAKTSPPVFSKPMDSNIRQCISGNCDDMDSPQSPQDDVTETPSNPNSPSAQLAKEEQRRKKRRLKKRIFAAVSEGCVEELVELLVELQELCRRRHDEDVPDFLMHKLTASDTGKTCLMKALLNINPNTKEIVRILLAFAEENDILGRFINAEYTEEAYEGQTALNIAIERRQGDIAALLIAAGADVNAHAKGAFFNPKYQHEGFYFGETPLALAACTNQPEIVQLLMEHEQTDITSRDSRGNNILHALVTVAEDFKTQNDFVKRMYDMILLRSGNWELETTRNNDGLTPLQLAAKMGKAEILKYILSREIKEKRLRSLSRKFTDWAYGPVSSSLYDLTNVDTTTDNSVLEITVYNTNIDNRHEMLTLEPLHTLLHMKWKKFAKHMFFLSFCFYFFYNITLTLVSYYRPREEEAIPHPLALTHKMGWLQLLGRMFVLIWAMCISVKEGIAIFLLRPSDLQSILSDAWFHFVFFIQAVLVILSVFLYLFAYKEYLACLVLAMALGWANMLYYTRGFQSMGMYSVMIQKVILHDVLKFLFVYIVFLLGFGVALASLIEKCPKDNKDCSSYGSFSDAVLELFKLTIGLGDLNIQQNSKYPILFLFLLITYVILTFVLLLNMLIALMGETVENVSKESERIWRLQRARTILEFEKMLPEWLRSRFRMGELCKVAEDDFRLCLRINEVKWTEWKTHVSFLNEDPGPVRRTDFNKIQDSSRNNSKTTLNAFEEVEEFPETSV
As to the kind of experiment: Activation of TRPV3 in HEK cells assessed as increase in Ca2+ level from extracellular space at 10 uM. To be noted: HEK293. In kind it is cell-based.

The target in assay [2] is T2, Short transient receptor potential channel 5 (Homo sapiens) (UniProt Q9UL62).
T2 sequence (whole entry): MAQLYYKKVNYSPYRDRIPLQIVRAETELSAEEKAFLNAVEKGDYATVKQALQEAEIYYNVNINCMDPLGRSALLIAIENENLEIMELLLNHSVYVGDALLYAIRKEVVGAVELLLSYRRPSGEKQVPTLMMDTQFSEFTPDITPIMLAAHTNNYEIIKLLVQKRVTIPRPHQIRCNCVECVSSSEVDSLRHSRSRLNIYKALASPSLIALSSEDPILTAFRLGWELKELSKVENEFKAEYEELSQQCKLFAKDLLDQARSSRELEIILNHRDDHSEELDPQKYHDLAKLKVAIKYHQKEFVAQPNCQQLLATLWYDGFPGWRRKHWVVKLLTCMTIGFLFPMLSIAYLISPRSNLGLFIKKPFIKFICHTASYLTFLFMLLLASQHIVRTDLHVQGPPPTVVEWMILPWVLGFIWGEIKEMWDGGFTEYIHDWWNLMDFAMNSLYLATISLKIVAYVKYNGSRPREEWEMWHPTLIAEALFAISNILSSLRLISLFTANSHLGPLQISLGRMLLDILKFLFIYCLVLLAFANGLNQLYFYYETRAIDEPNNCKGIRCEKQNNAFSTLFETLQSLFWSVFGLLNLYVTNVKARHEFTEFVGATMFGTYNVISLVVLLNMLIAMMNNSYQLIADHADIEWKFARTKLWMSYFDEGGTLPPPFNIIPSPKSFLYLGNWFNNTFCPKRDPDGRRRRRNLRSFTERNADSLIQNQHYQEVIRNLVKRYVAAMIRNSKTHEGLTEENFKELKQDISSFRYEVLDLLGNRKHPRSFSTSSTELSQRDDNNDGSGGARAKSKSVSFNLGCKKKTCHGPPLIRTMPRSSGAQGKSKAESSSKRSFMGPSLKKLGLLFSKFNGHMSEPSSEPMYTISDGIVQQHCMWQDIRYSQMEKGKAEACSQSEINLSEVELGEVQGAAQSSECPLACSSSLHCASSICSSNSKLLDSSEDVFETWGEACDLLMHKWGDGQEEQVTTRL
As to the kind of experiment: Activation of TRPC5 expressed in BAEC expressing TRPC5 siRNA assessed as increase in Ca2+ level from extracellular space at 100 uM.

Assay [3] has as its system T3, Short transient receptor potential channel 5 (Homo sapiens), Q9UL62 [C558S].
T3 sequence (whole entry): T2 sequence (whole entry) with C558S
As to the kind of experiment: Decrease in TRPC5 C558S mutant S-nitrosylation in HEK cells assessed as inhibition of incorporation of DTNB-2Bio at 300 uM relative to control. To be noted: HEK293. It is filed as cell-based.

Assay [4] concerns HEK293. In words: Induction of rat TRPV1 Cys616 mutant S-nitrosylation expressed in HEK cells assessed as increase in Ca2+ level from extracellular space at 0.1 to 1 mM. In kind it is cell-based.
Assay [5] relates to HEK293. As to the kind of experiment: Induction of rat TRPV1 Cys621 mutant S-nitrosylation expressed in HEK cells assessed as increase in Ca2+ level from extracellular space at 0.1 to 1 mM. In kind it is cell-based.
Assay [6] has as its target T2, Short transient receptor potential channel 5 (Homo sapiens). In words: Activation of TRPC5 expressed in BAEC expressing dominant negative mutant of TRPC5 assessed as increase in Ca2+ level from extracellular space at 300 uM.

Turning to `O=[N+]([O-])c1ccc(SSc2ccc([N+](=O)[O-])cn2)nc1`, the outcome in assay [1] was Active. Also, in assay [2], the outcome was inactive.
Take `CC(=O)N[C@@H](C(=O)O)C(C)(C)SN=O` (racemic): the result in assay [3] was Active. The outcome in assay [4], in assay [5] and in assay [6] was inactive.
